Assay results taken from ChEMBL document CHEMBL1201862, “PubChem BioAssay data set” (2004).
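Following 48 hours of exposure in 96-well plates, responses at five concentrations were used to interpolate endpoints linearly. Abbreviation: GI50, concentration required for 50% inhibition of growth.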 Calls of active or inactive are those of the source. Cut-off read from the data, not from the text of the source: active = GI50 up to about 1.1 µM and inactive = higher.

What was measured:
Assay in all cases: inhibition of tumour cell growth, NCI panel, 48 h
EKVX = system: EKVX
OVCAR-3 = system: OVCAR-3
SNB-19 = system: SNB-19
HT-29 = system: HT-29
MOLT-4 = system: MOLT-4
NCI-H460 = system: NCI-H460
SK-OV-3 = system: SK-OV-3
786-0 = system: 786-0
M19-MEL = system: M19-MEL
HCC 2998 = system: HCC 2998
HL-60 = system: HL-60
HCT-15 = system: HCT-15
RPMI-8226 = system: RPMI-8226
UACC-62 = system: UACC-62
OVCAR-4 = system: OVCAR-4
SR = system: SR

| Compound | GI50 (EKVX) | GI50 (OVCAR-3) | GI50 (SNB-19) | GI50 (HT-29) | GI50 (MOLT-4) | GI50 (NCI-H460) | GI50 (SK-OV-3) | GI50 (786-0) | GI50 (M19-MEL) | GI50 (HCC 2998) | GI50 (HL-60) | GI50 (HCT-15) | GI50 (RPMI-8226) | GI50 (UACC-62) | GI50 (OVCAR-4) | GI50 (SR) |
| --- | --- | --- | --- | --- | --- | --- | --- | --- | --- | --- | --- | --- | --- | --- | --- | --- |
| CCn1cc(/C=C/C(C)c2cn(CC)c(=O)[nH]c2=O)c(=O)[nH]c1=O (centres undefined) | > 100 µM (inactive) | > 100 µM (inactive) | > 100 µM (inactive) | > 100 µM (inactive) | > 100 µM (inactive) | > 100 µM (inactive) | > 100 µM (inactive) | > 100 µM (inactive) | > 100 µM (inactive) | > 100 µM (inactive) | > 100 µM (inactive) | > 100 µM | > 100 µM (inactive) | > 100 µM (inactive) | > 100 µM (inactive) | – |
| CC1(C)CCC(Sc2ccccc2)O1 (centres undefined) | > 100 µM (inactive) | > 100 µM (inactive) | > 100 µM (inactive) | – | > 100 µM (inactive) | > 100 µM (inactive) | > 100 µM (inactive) | > 100 µM (inactive) | > 100 µM (inactive) | > 100 µM (inactive) | > 100 µM (inactive) | > 100 µM | > 100 µM (inactive) | > 100 µM (inactive) | > 100 µM (inactive) | > 100 µM (inactive) |
| COCCCCCC(=O)CP(=O)(OC)OC | > 100 µM (inactive) | > 100 µM (inactive) | > 100 µM (inactive) | > 100 µM (inactive) | > 100 µM (inactive) | > 100 µM (inactive) | > 100 µM (inactive) | > 100 µM (inactive) | > 100 µM (inactive) | > 100 µM (inactive) | 86.3 µM (inactive) | > 100 µM | > 100 µM (inactive) | > 100 µM (inactive) | – | 52 µM (inactive) |
| Cc1cc(C)nc(NS(=O)(=O)c2ccc(Nc3c4ccc(Cl)cc4nc4c(C(=O)Nc5ccc(S(N)(=O)=O)cc5)cccc34)cc2)n1 | 21 µM (inactive) | 15.5 µM (inactive) | 24.6 µM (inactive) | 24 µM (inactive) | 9.77 µM (inactive) | 17.1 µM (inactive) | 13.9 µM (inactive) | 15.2 µM (inactive) | 25.4 µM (inactive) | 16.6 µM (inactive) | – | 17.9 µM | 21.5 µM (inactive) | 25 µM (inactive) | 23.5 µM (inactive) | 16.6 µM (inactive) |
| O=C1c2ccccc2C2(O)Nc3c(ccc4ccccc34)C12O (centres undefined) | > 100 µM (inactive) | 99.5 µM (inactive) | 85.3 µM (inactive) | > 100 µM (inactive) | 39 µM (inactive) | > 100 µM (inactive) | > 100 µM (inactive) | > 100 µM (inactive) | > 100 µM (inactive) | > 100 µM (inactive) | 97.1 µM (inactive) | > 100 µM | > 100 µM (inactive) | > 100 µM (inactive) | > 100 µM (inactive) | – |
| CCN(CC)CC(C(C)=O)C(c1ccccc1)c1c(O)c2ccccc2oc1=O (centres undefined) | > 100 µM (inactive) | > 100 µM (inactive) | > 100 µM (inactive) | > 100 µM (inactive) | > 100 µM (inactive) | > 100 µM (inactive) | > 100 µM (inactive) | > 100 µM (inactive) | > 100 µM (inactive) | > 100 µM (inactive) | > 100 µM (inactive) | > 100 µM | > 100 µM (inactive) | > 100 µM (inactive) | > 100 µM (inactive) | > 100 µM (inactive) |
| O=C(CCc1nnc2s/c(=C\c3ccccc3)c(=O)n12)Nc1cc(Cl)ccc1Cl | > 100 µM (inactive) | > 100 µM (inactive) | > 100 µM (inactive) | > 100 µM (inactive) | > 100 µM (inactive) | > 100 µM (inactive) | > 100 µM (inactive) | > 100 µM (inactive) | > 100 µM (inactive) | > 100 µM (inactive) | > 100 µM (inactive) | 34.2 µM | > 100 µM (inactive) | > 100 µM (inactive) | > 100 µM (inactive) | > 100 µM (inactive) |
| C=CCN(N=O)C(=O)ON1C(=O)CCC1=O | > 100 µM (inactive) | > 100 µM (inactive) | > 100 µM (inactive) | > 100 µM (inactive) | > 100 µM (inactive) | > 100 µM (inactive) | > 100 µM (inactive) | > 100 µM (inactive) | > 100 µM (inactive) | > 100 µM (inactive) | > 100 µM (inactive) | > 100 µM | > 100 µM (inactive) | > 100 µM (inactive) | > 100 µM (inactive) | – |
| C/C=C1/C=CC2c3[nH]c4ccccc4c3CCN2C1 (centres undefined) | > 400 µM (inactive) | 116 µM (inactive) | 187 µM (inactive) | > 400 µM (inactive) | > 400 µM (inactive) | > 400 µM (inactive) | > 400 µM (inactive) | > 400 µM (inactive) | > 400 µM (inactive) | > 400 µM (inactive) | > 400 µM (inactive) | > 400 µM | > 400 µM (inactive) | > 400 µM (inactive) | – | 331 µM (inactive) |
| CCSC1(SCC)CC(Cc2ccc(OC)cc2)N(/C=N/C(C)(C)C)C1 (centres undefined) | 27 µM (inactive) | 27.8 µM (inactive) | 38.7 µM (inactive) | 10.7 µM (inactive) | 14.7 µM (inactive) | 8.51 µM (inactive) | 22.8 µM (inactive) | 32.1 µM (inactive) | 29 µM (inactive) | 17 µM (inactive) | 10.6 µM (inactive) | 25.8 µM | – | 19.1 µM (inactive) | 29.7 µM (inactive) | 10.6 µM (inactive) |
| Cn1c(=O)c(C(c2ccc([N+](=O)[O-])cc2)c2c(O)c3ccccc3n(C)c2=O)cc2ccccc21 (centres undefined) | 41.7 µM (inactive) | 55.3 µM (inactive) | 40.3 µM (inactive) | 44.8 µM (inactive) | 41.7 µM (inactive) | > 100 µM (inactive) | 60.1 µM (inactive) | 54.6 µM (inactive) | 35.5 µM (inactive) | > 100 µM (inactive) | 36.1 µM (inactive) | 45.8 µM | 41.8 µM (inactive) | 19.2 µM (inactive) | 41.1 µM (inactive) | 39.4 µM (inactive) |
| CCCCC1(OC(=O)CCC(=O)O)CCC2(CCC(C)C(C/C=C(C)/C=C/C(O)C(C)/C=C/C(=O)O)O2)OC1CC/C(C)=C/C(=O)O (centres undefined) | 5.2 µM (inactive) | 2.64 µM (inactive) | 3.11 µM (inactive) | 10.3 µM (inactive) | 5.02 µM (inactive) | 6.18 µM (inactive) | 6.17 µM (inactive) | 3.52 µM (inactive) | 2.84 µM (inactive) | 3.33 µM (inactive) | 4.57 µM (inactive) | 3.45 µM | 3.15 µM (inactive) | 0.971 µM (active) | 2.1 µM (inactive) | 3.04 µM (inactive) |
| CC(C)=CCC/C(C)=C/CC/C(C)=C/CC/C=C(\C)CC/C=C(\C)CCC1SC1(C)C (centres undefined) | > 100 µM (inactive) | – | > 100 µM (inactive) | > 100 µM (inactive) | > 100 µM (inactive) | > 100 µM (inactive) | > 100 µM (inactive) | > 100 µM (inactive) | > 100 µM (inactive) | > 100 µM (inactive) | > 100 µM (inactive) | > 100 µM | > 100 µM (inactive) | > 100 µM (inactive) | > 100 µM (inactive) | – |
| N#CC12CC3(CCC1CCC1(C2)OCCO1)OCCO3 (centres undefined) | > 100 µM (inactive) | > 100 µM (inactive) | > 100 µM (inactive) | – | > 100 µM (inactive) | > 100 µM (inactive) | > 100 µM (inactive) | > 100 µM (inactive) | > 100 µM (inactive) | > 100 µM (inactive) | > 100 µM (inactive) | > 100 µM | > 100 µM (inactive) | > 100 µM (inactive) | > 100 µM (inactive) | > 100 µM (inactive) |
| COC(=O)[C@@H]1C(=O)O[C@@H](c2ccc3c(c2)OCO3)[C@@H]1C(=O)OC.COC(=O)[C@H]1C(=O)O[C@@H](c2ccc3c(c2)OCO3)[C@@H]1C(=O)OC | > 100 µM (inactive) | > 100 µM (inactive) | > 100 µM (inactive) | > 100 µM (inactive) | > 100 µM (inactive) | > 100 µM (inactive) | > 100 µM (inactive) | > 100 µM (inactive) | > 100 µM (inactive) | > 100 µM (inactive) | > 100 µM (inactive) | > 100 µM | > 100 µM (inactive) | > 100 µM (inactive) | > 100 µM (inactive) | > 100 µM (inactive) |
| Nc1ccccc1N | – | > 100 µM (inactive) | > 100 µM (inactive) | > 100 µM (inactive) | 36.7 µM (inactive) | > 100 µM (inactive) | > 100 µM (inactive) | > 100 µM (inactive) | > 100 µM (inactive) | > 100 µM (inactive) | 25.6 µM (inactive) | > 100 µM | 32 µM (inactive) | > 100 µM (inactive) | > 100 µM (inactive) | 32.9 µM (inactive) |
